In PubChem BioAssay AID1626 (SRMLSC, 2009):

System: M. tuberculosis H37Rv growth inhibition
Test: M. tuberculosis H37Rv growth inhibitors, H37Rv strain (AID 1626)
Settings: for IC90: measured here: IC90 against H37Rv; for CC50: measured here: Vero cell cytotoxicity

COc1ccc(NCc2ccc([N+](=O)[O-])s2)cc1
IC50: 59.4 µM
IC90: > 100 µM

Cc1ccc(C(=O)NCCSC(C)(C)C)cc1[N+](=O)[O-]
IC50: 2.96 µM
IC90: 3.32 µM

Cc1c(Cc2ccccc2)c(NCCCO)n2c(nc3ccccc32)c1C#N
IC50: 2.9 µM
IC90: 3.35 µM

O=c1oc2ccc(Br)cc2cc1-c1nc2ccccc2o1
IC50: 2 µM
IC90: 3.83 µM

O=C(/C=C/c1ccc(Cl)cc1)c1cccnc1
IC50: 2.01 µM
IC90: 4.7 µM
CC50: 28.5 µM

CCc1ccc(NC(=O)c2cnc(N3CCN(c4ccccn4)CC3)c3ccccc23)cc1
IC50: 0.444 µM
IC90: 5.71 µM
CC50: > 40 µM

CC(=O)NC(=O)c1ccc(-c2ccc(Cl)cc2)o1
IC50: 11.3 µM
IC90: > 100 µM

Cc1ccc(Cl)c(OC(=O)c2ccc(N3CCOCC3)c([N+](=O)[O-])c2)c1
IC50: 6.6 µM
IC90: > 100 µM

CCN(CC)c1ccc(N=Cc2c(C)[nH]c3ccccc23)cc1
IC50: 22.1 µM
IC90: 35.1 µM
CC50: > 40 µM

CCC(=C(c1ccc(OC)cc1)c1ccc(OC)cc1)c1cn(CC(O)CN(CCO)CCO)c2ccccc12 (stereo not drawn)
IC50: 12.5 µM
IC90: 13.6 µM
CC50: 26.5 µM

CCOC(=O)CSc1ccc(-c2nc3ccccc3[nH]2)cn1
IC50: 2.98 µM
IC90: 5.54 µM
CC50: > 40 µM

O=C(CSc1cccc2cccnc12)N1CCCC1
CC50: 27.4 µM

COc1ccc(NC(=O)CN(C)CC(=O)Nc2ccc3c(c2)CCC3)cc1
IC50: 20.6 µM
IC90: > 100 µM

OC(COCC(F)(F)C(F)(F)C(F)(F)C(F)F)Cn1c2ccc(Cl)cc2c2cc(Cl)ccc21 (stereo not drawn)
IC50: 7.11 µM
IC90: 9.92 µM
CC50: 13.3 µM

CC(C)(C)C1CCc2c(sc(NC(=O)CSc3nnc(-c4ccccc4)o3)c2C#N)C1 (stereo not drawn)
IC90: > 100 µM

CCOC(=O)c1ccc(NCc2ccc(N(C)C)cc2)cc1
IC90: > 100 µM

CC(C)c1ccc(NC(=O)COc2ccc(C3SCCS3)cc2)cc1
IC90: > 100 µM

N=c1n(CCN2CCCCC2)c2ccccc2n1CC(=O)c1ccc(Cl)c(Cl)c1
IC50: 8.28 µM
IC90: 10.5 µM
CC50: 19.8 µM

COc1cccc(/C=C/C(=O)c2cccc([N+](=O)[O-])c2)c1
IC50: 6.89 µM
IC90: > 100 µM
CC50: 35.9 µM

Cc1cc(C)n(-c2nc(NC(C)C)nc(NC(C)C)n2)n1
IC50: 0.961 µM
IC90: 3.94 µM
CC50: > 40 µM

O=Cc1ccc(O)c2ncccc12
IC50: 0.378 µM
IC90: 0.549 µM
CC50: 7.88 µM

CC(=O)Nc1nnc(-c2ccc3c(c2)CCCC3)o1
IC50: 11.9 µM
IC90: 23 µM
CC50: > 40 µM

CC1CCN(c2nc(CN3CCCCC3)nc3scc(-c4ccccc4)c23)CC1
IC50: 9.11 µM
IC90: 11.9 µM
CC50: 34.9 µM

O=S(=O)(Nc1nc2ccccc2nc1Nc1ccc(N2CCOCC2)cc1)c1cc(Cl)ccc1Cl
IC90: > 100 µM
CC50: 22.3 µM

CC1CCN(C(=O)COC(=O)CCc2c[nH]c3ccccc23)CC1
IC50: 0.34 µM
IC90: > 100 µM

COc1ccc(-c2ccnc3nc(N4CCN(c5ccccc5)CC4)nn23)cc1
IC50: 14.9 µM
IC90: > 100 µM
CC50: > 40 µM

CCCCCCCCCCn1c2c(c(=N)c3c1CCC3)CCC2
IC50: 2.42 µM
IC90: 3.59 µM
CC50: 6.09 µM

O=S1(=O)C=C(Sc2nc3cc(Cl)ccc3o2)c2ccccc21
IC50: 2.9 µM
IC90: 3.18 µM
CC50: 16.1 µM

CCc1ccc(NC(=O)CSc2ccccn2)cc1
IC50: 22.1 µM
IC90: > 100 µM

CC(=O)n1cc(N(C(=O)CCl)c2ccc(C)cc2)c2ccccc21
IC50: 4.64 µM
IC90: 17.1 µM
CC50: 0.471 µM

O=C(Oc1ccc(Cl)cc1)c1ccc(N2CCOCC2)c([N+](=O)[O-])c1
IC50: 1.46 µM
IC90: 3.16 µM

COc1ccc(N2Cc3ccccc3C2)cc1Cl
IC90: > 100 µM

C=CCn1c(SCc2csc(-c3ccc(C)cc3)n2)nnc1-c1ccccc1OC
IC50: 16.5 µM
IC90: 23.8 µM
CC50: > 40 µM

CC(C)Nc1ccc(Nc2ccnc3cc4ccccc4cc23)cc1
IC50: 5.31 µM
IC90: 9.7 µM
CC50: 3.3 µM

CCN1CCN(Cc2ccc(NC(=O)c3cc(NC(=O)c4cc(-c5ccc(OC)cc5)n[nH]4)cc(OC)c3)cc2C(F)(F)F)CC1
IC50: 4.41 µM
IC90: 5.93 µM
CC50: 6.28 µM

COc1ccc(Br)cc1C(=O)Nc1ccccc1N1CCN(C(=O)c2ccccc2)CC1
IC50: 16.7 µM
IC90: > 100 µM
CC50: > 40 µM

COc1cccc(/C=C2\Sc3ccc(C(=O)NCc4cccnc4)cc3N(C)C2=O)c1
IC50: 2.83 µM
IC90: 6.21 µM
CC50: > 40 µM

COc1ccccc1/C=C/C(=O)Oc1cccc2cccnc12
IC50: 2.8 µM
IC90: 3.05 µM
CC50: 37.9 µM

CC(=O)c1ccccc1OCC(O)CN1CCN(C(c2ccccc2)c2ccccc2)CC1 (stereo not drawn)
IC50: 7.75 µM
IC90: 32.6 µM
CC50: 33.1 µM

COC(=O)CC(=O)N1CCN(c2ccc(Cl)c(Cl)c2)CC1
IC50: 11.9 µM
IC90: 25.2 µM

Cc1cccc(CN2CCCC(C(=O)c3cccc(OC(C)C)c3)C2)n1 (stereo not drawn)
IC50: 12.3 µM
IC90: > 100 µM
CC50: > 40 µM

O=C(Nc1ccc(-c2csnn2)cc1)C(Cl)(Cl)Cl
IC50: < 0.195 µM
IC90: > 100 µM

Cc1cccc(C(=O)Nc2nnc(-c3ccco3)o2)c1
IC50: 0.695 µM
IC90: 3.56 µM
CC50: 37.1 µM

OC(CNCC(c1ccc(Cl)cc1Cl)c1c[nH]c2ccccc12)c1ccccc1 (stereo not drawn)
IC50: 6.68 µM
IC90: 10.3 µM
CC50: 11.2 µM

CCCOC(=O)CSc1nc(N)c(C#N)c(-c2ccco2)c1C#N
IC50: < 0.195 µM
IC90: 0.907 µM

COc1cc(OC)c2cc[nH]c2c1
IC90: > 100 µM

Cc1cc(C(=O)CCl)c(C)n1-c1cccc([N+](=O)[O-])c1
IC50: 8.96 µM
IC90: 15.7 µM
CC50: 20.3 µM

Cn1c(O)c(C=Nc2ccccc2-c2ccccc2)c(=O)n(C)c1=O
CC50: > 40 µM

O=C(CN1C(=O)C2C3CCC(C3)C2C1=O)Oc1ccc2ccccc2c1 (stereo not drawn)
IC90: > 100 µM

CCn1c(CNc2ccccc2Cl)nnc1SCC(=O)OC1CCCCC1
IC50: 1.63 µM
IC90: 3.2 µM

Nc1cc(=O)[nH]c(SCC(=O)Nc2ccccc2-c2ccccc2)n1
IC90: > 100 µM
CC50: > 40 µM

Clc1ccc(-c2nnc(SCc3nc4ccccc4s3)o2)cc1
IC50: 5.3 µM
IC90: > 100 µM

COc1ccc(NCc2nc3ccccc3n2CCOc2ccc(C)cc2)cc1
IC50: 17.8 µM
IC90: 26.2 µM
CC50: 26.2 µM

OC(CNCc1ccco1)Cn1c2ccc(Br)cc2c2cc(Br)ccc21 (stereo not drawn)
IC50: 2.76 µM
IC90: 3.11 µM
CC50: 17.2 µM

CCOC(=O)CSc1ncnc2c1cnn2-c1ccc(Cl)cc1
IC50: 1.03 µM
IC90: > 100 µM

CCOC(=O)CSc1nc2c(c(-c3ccc(C)o3)c1C#N)CCCC2
IC50: 2.36 µM
IC90: 3.53 µM

Cn1cnc([N+](=O)[O-])c1S(=O)(=O)c1ccc(Cl)cc1
IC50: 8.35 µM
IC90: 10.7 µM
CC50: 23.4 µM

COC(=O)CSc1ccc(-c2nc3ccc(C)cc3[nH]2)cn1
IC50: 1.95 µM
IC90: 3.39 µM

Cc1ccc(Oc2nc(-c3ccccn3)nc3ccccc23)cc1
IC50: 2.56 µM
IC90: 10.5 µM
CC50: 22.4 µM

Nc1ccc2c(c1)C(=O)C(=O)c1ccccc1-2
IC50: 0.401 µM
IC90: 13.5 µM
CC50: 3.16 µM

COC(=O)CSc1ccc2c(N)c(C(=O)OC)sc2c1
IC50: 1.68 µM
IC90: 2.82 µM

CC(C)C1N=C(c2ccc3c(c2)OCO3)CC(c2ccccc2O)N1 (stereo not drawn)
IC50: 10.6 µM
IC90: 14.3 µM
CC50: 26.8 µM

Cc1ccc(C(=O)/C=C\Nc2ccc(C)c(C)c2)cc1
IC90: > 100 µM

CCc1ccc(-c2cc(C(F)(F)F)n3nc(C(=O)Nc4c(C)nn(Cc5ccc(F)cc5)c4C)cc3n2)s1
IC50: 16.2 µM
IC90: > 100 µM
CC50: > 40 µM

O=C(Nc1nc2ccccc2[nH]1)c1cccc([N+](=O)[O-])c1
IC90: > 100 µM

O=C(OCC(=O)N1CCCCC1)c1cc2ccccc2cc1O
IC50: 1.62 µM
IC90: 10.6 µM

CCOC(=O)COc1ccc(-c2nnc(-c3ccccc3)o2)cc1
IC50: 0.409 µM
IC90: 3.76 µM

O=C(CSc1nc2cc(Cl)ccc2o1)NCCc1ccccc1
IC50: < 0.391 µM
IC90: 1.09 µM

CCOC(=O)CSc1nnc(-c2ccc([N+](=O)[O-])cc2)o1
IC50: 0.316 µM
IC90: 3.84 µM

Cc1ccc(-c2csc(NC(=O)CSc3nc4ccccc4c(=O)n3CCCN(C)C)n2)cc1
IC50: 7.67 µM
IC90: 9.52 µM
CC50: 12 µM

CCCCOc1ccc(NC(=O)C2CC=CCC2C(=O)O)cc1 (stereo not drawn)
IC50: 75.7 µM
IC90: > 100 µM

O=c1cc(N=Nc2ccc(Cl)cc2)[nH]c(=O)[nH]1
IC50: 13 µM
IC90: 14.5 µM
CC50: 7.51 µM

O=C(C[n+]1cc(-c2ccc(Cl)c(Cl)c2)n2c1CCC2)N1c2ccccc2Sc2ccccc21
IC50: 12.2 µM
IC90: 13.9 µM

COc1cccc(C(=O)/C=C/c2ccc(N3CCCCC3)c([N+](=O)[O-])c2)c1
IC50: 29.4 µM
IC90: > 100 µM
CC50: 27.2 µM

O=C(O)c1ccc(Nc2nc(-c3cc4ccccc4oc3=O)cs2)cc1O
IC50: 20.1 µM
IC90: > 100 µM

CC(C)OC(=O)CSc1ncnc2c1cnn2-c1ccccc1
IC50: 8.75 µM
IC90: 25.2 µM

CCOc1ccc(Nc2nc(N)nc(CN3CCN(c4ccccc4F)CC3)n2)cc1
IC50: 7.83 µM
IC90: 16.8 µM

CCOC(=O)c1ccc2ncc(C(=O)OCC)c(Nc3ccc(N4CCOCC4)cc3)c2c1
IC50: 10.9 µM
IC90: 22.7 µM
CC50: > 40 µM

CCn1c(NC(=O)c2ccccc2)nc2ccccc21
IC50: 1.71 µM
IC90: 8.64 µM
CC50: > 40 µM

CCOC(=O)Cn1c2c(c(-c3ccccc3OC)cc1=O)CCCC2
IC50: 21.1 µM
IC90: > 100 µM

Nc1cnn(Cc2ccc(F)cc2)c1
IC90: > 100 µM

COc1ccc(NC(=O)COc2ccc3c(c2)CCC3)cc1
IC50: 16.4 µM
IC90: > 100 µM

O=C(/C=C/c1cn(CC(O)CN2CCCCCC2)c2ccccc12)c1cccs1 (stereo not drawn)
IC50: 0.993 µM
IC90: 1.95 µM
CC50: 20 µM

CCc1sc(N)nc1-c1ccccc1
IC90: > 100 µM

CSCCC(NC(=O)c1cc([N+](=O)[O-])cc([N+](=O)[O-])c1)c1nc2ccccc2[nH]1 (stereo not drawn)
IC50: 5.37 µM
IC90: 5.96 µM
